From PMC12087607 (Drug Design, Development and Therapy, 2025)

How the values were obtained:
male Wistar rats [1] = assay: In vivo toxicity study: daily inspection and body weight; conditions: daily inspection, body weight twice weekly, 6 weeks
rat livers = format: in vivo; conditions: toxicity groups
[2] = system: rats with CCl4-induced liver fibrosis; assay: Serum liver biomarkers in CCl4-induced liver fibrosis; format: in vivo, rat; conditions: CCl4 6 weeks, then 6-week treatment 20 mg/kg/day
MMP-9 = assay: Hepatic MMP-9 mRNA expression; format: in vivo, rat; conditions: CCl4 6 weeks, then 6-week treatment 20 mg/kg/day
TIMP-1 = assay: Hepatic TIMP-1 protein levels; format: in vivo, rat; conditions: tissue homogenates; CCl4 6 weeks, then 6-week treatment 20 mg/kg/day
TNF-α = assay: Liver TNF-α content; format: in vivo, rat; conditions: liver homogenates; CCl4 6 weeks, then 6-week treatment 20 mg/kg/day
GSH = assay: Reduced glutathione; format: in vivo, rat; conditions: liver homogenates; CCl4 6 weeks, then 6-week treatment 20 mg/kg/day
MDA = assay: Lipid peroxides; format: in vivo, rat; conditions: liver homogenates; CCl4 6 weeks, then 6-week treatment 20 mg/kg/day
male Wistar rats [3] = assay: In vivo toxicity study: hepatic and renal serum biomarkers; conditions: in vivo toxicity study groups, 6 weeks, mean ± SEM, n = 5
TGF-β1 = assay: Hepatic TGF-β1 mRNA expression; format: in vivo, rat; conditions: CCl4 6 weeks, then 6-week treatment 20 mg/kg/day; vs model group
[4] = system: rats with CCl4-induced liver fibrosis; assay: Liver histology; format: in vivo, rat; conditions: CCl4 6 weeks, then 6-week treatment 20 mg/kg/day
α-SMA = assay: Immunohistochemical staining of α-SMA in CCl4-induced liver fibrosis; format: in vivo, rat; conditions: CCl4 6 weeks, then 6-week treatment 20 mg/kg/day; vs model group

## Cc1ccc(-c2cc(C(F)(F)F)nn2-c2ccc(S(N)(=O)=O)cc2)cc1 [celecoxib]
Male Wistar rats [1]
  Signs of stress, toxicity or weight loss: did not show any signs of stress, toxicity or weight loss
Rat livers
  Gross examination of rat livers: normal smooth livers with no inflammation or fatty depositions
[2]; normal range 30 to 130 U/L
  Serum ALP levels: lied within the normal range
[2]; vs model group
  Serum AST and ALT levels: significant reduction in liver enzyme levels
  Total serum bilirubin (TBIL) levels: significant decrease in the total serum bilirubin levels
MMP-9
  Hepatic MMP-9 mRNA expression: reversed that upregulation
TIMP-1
  Hepatic TIMP-1 protein levels: caused a decrease in TIMP-1 levels
TNF-α
  Liver TNF-α content: significantly superior effect in lowering TNF-α levels
GSH
  GSH content: significant rise in GSH levels
MDA
  MDA content (lipid peroxides): significant lowering effect on MDA levels
Male Wistar rats [3]
  ALP: 123 ± 6.59 U/L
  ALT: 45.66 ± 0.88 U/L
  AST: 127.5 ± 14 U/L
  Albumin: 3.68 ± 0.04 g/dL
  Creatinine: 0.43 ± 0.06 mg/dL
  Total Bilirubin: 0.045 ± 0.006 mg/dL
TGF-β1
  Hepatic TGF-β1 mRNA expression: significant reduction in the expression of TGF- β1
[4]
  Liver architecture (H&E): evident fibrolytic effects
[4]; Masson's trichrome
  Fibrosis score (0–4): significant decrease in fibrosis scores
α-SMA
  α-SMA % change (in words): significant decline of the α-SMA %
